Test results: BigSolDB 2.1

COC(=O)[C@H](c1ccccc1Cl)N1CCc2sccc2C1.O=S(=O)(O)O
solubility (mole fraction)
Conditions	273.15 K	278.15 K	283.15 K	288.15 K	293.15 K	298.15 K	303.15 K	308.15 K
in MTBE	6.2e-05	6.5e-05	7.5e-05	8.6e-05	0.000101	0.00011	0.000122	0.000125
in acetone	0.0188	0.0262	0.0339	0.0436	0.0474	0.0567	0.0672	0.076
in ethyl acetate	0.000278	0.000325	0.000342	0.000401	0.000457	0.000511	0.000543	0.000619
in isopropanol	0.00815	0.0113	0.0132	0.0198	0.0237	0.0305	0.0382	0.0463
in methyl acetate	0.000959	0.00103	0.00112	0.00122	0.00133	0.00151	0.00188	0.00214
in n-butanol	0.0502	0.056	0.0655	0.0686	0.0771	0.08	0.0869	0.0952
in sec-butanol	0.00377	0.00528	0.00678	0.00961	0.0127	0.016	0.0191	0.0238
